Data published in patent US5834259A, “Process and composition for preparing D-aspartic acid” (Monsanto Company, priority 1996, dated 1998).

What was measured:
Type in all cases: biochemical, E. coli K12
[1] = target: T1, L-aspartate-α-decarboxylase (Escherichia coli, UniProt P0A790); assay: Temperature study, 37° C. (Example 9); conditions: for concentration in supernatant fluid / percent remaining: 1.0M, 100 g/l cells
T1 construct: expressed in transfected cells; host or cells: E. coli W3110 transformed with pIF309 = strain NS3291 (ATCC 98675), whole cells
Description: (§1) 133.1 g (1 mol) of D/L-aspartic acid was dissolved in deionized H2 O and the pH was adjusted to 7.0 with 10N NaOH, approximately 100 ml. Cells, freshly thawed from -80° C., were added to achieve a final concentration of 100 g/l. Three 2 L fermentors were each charged with 963 ml of substrate solution and 137 ml of cells and then heated to 37° C. and 45° C. while mixing at 300 rpm or heated to 50° C. while mixing at 450 rpm. Samples, approximately 1 ml, were removed over time and pH adjusted to 7.0 with either NaOH or HCl. After centrifugation to remove cells, the supernatant fluid was analyzed for both D- and L-aspartic acid.

[2] = target: T1, L-aspartate-α-decarboxylase; assay: Re-treatment of Example 3 supernatant fluid with fresh cells (Example 4); conditions: 37° C.
Excerpt: In all of the Examples herein, D- and L-aspartic acid isomers were quantified by HPLC using the following precolumn derivatization method. Aspartic acid was converted into diastereomers using ortho-phthalaldehyde and N-acetyl-L-cysteine. Separation of the diastereomers was achieved on a Supelcosil™ LC-18DB, 3μ, 150×4.6 mm column using a mobile phase of A: 20% methanol/80% triethylamine phosphate and B: methanol, and a step gradient as follows: […]
In this Example the supernatant fluid from Example 3 was re-treated with fresh cells. The reaction from Example 3, stopped at 68 hours, was centrifuged for 45 minutes in a GS-3 rotor at 7000 rpm. The supernatant fluid, 990 ml, was separated from the cells. 963 ml of this supernatant fluid was mixed with 137 ml fresh cells and placed in a 2 L fermentor. Bioconversion took place with mixing at 300 rpm, without automatic pH control and at a temperature of 37° C. Samples, approximately 1 ml, were removed over time and analyzed as in Example 3.

[3] = target: T1, L-aspartate-α-decarboxylase; assay: Activity towards D/L-glutamate and D/L-alanine, D/L-aspartate as control (Example 8); conditions: for concentration in supernatant fluid / percent remaining: racemate substrate, pH 7.0
Description: D/L-aspartate was run as a control.
Substrates were prepared by dissolving solid amino acid racemate in approximately 75 ml deionized H2 O and adjusting the pH to 7.0 with 10N NaOH. The volume was then brought to 100 ml with deionized H2 O. The cells used were stored frozen for about 1 month and then thawed and stored in a refrigerator for about 1 month prior to running the experiments.
The reaction was run the same as described in the prior Examples. Samples of supernatant fluid, approximately 0.20 ml, were removed over time, centrifuged and stored frozen before analysis by HPLC as described in the prior Examples.

[4] = target: T1, L-aspartate-α-decarboxylase; assay: Temperature study, 50° C. (Example 9); conditions: 1.0M, 100 g/l cells
Description: as §1

N[C@@H](CC(=O)O)C(=O)O [L-Asp, L-aspartic acid]
concentration in supernatant fluid ([1]; 0.0000 hr): 53.700 mg/mL | concentration in supernatant fluid ([1]; 2.5000 hr): 48.940 mg/mL | percent remaining ([1]; 2.5000 hr): 91.136% | concentration in supernatant fluid ([1]; 4.0000 hr): 47.600 mg/mL | percent remaining ([1]; 4.0000 hr): 88.641% | concentration in supernatant fluid ([1]; 6.0000 hr): 46.170 mg/mL | percent remaining ([1]; 6.0000 hr): 85.978% | concentration in supernatant fluid ([1]; 8.0000 hr): 44.810 mg/mL | percent remaining ([1]; 8.0000 hr): 83.445% | concentration in supernatant fluid ([1]; 10.000 hr): 42.120 mg/mL | percent remaining ([1]; 10.000 hr): 78.436% | concentration in supernatant fluid ([1]; 12.000 hr): 42.120 mg/mL | percent remaining ([1]; 12.000 hr): 78.462% | concentration in supernatant fluid ([1]; 20.000 hr): 35.960 mg/mL | percent remaining ([1]; 20.000 hr): 66.965% | concentration in supernatant fluid ([1]; 24.000 hr): 34.840 mg/mL | percent remaining ([1]; 24.000 hr): 64.879% | concentration in supernatant fluid ([1]; 29.000 hr): 28.040 mg/mL | percent remaining ([1]; 29.000 hr): 54.078% | concentration in supernatant fluid ([1]; 34.000 hr): 28.040 mg/mL | percent remaining ([1]; 34.000 hr): 54.078% | concentration in supernatant fluid ([1]; 44.000 hr): 21.670 mg/mL | percent remaining ([1]; 44.000 hr): 40.354% | concentration in supernatant fluid ([1]; 48.000 hr): 18.440 mg/mL | percent remaining ([1]; 48.000 hr): 34.339% | concentration in supernatant fluid ([1]; 68.000 hr): 5.9700 mg/mL | percent remaining ([1]; 68.000 hr): 11.117% | concentration in supernatant fluid ([1]; 92.000 hr): 0.915 mg/mL | percent remaining ([1]; 92.000 hr): 1.7039% | consumption of the isomer ([1]; by 99.75 hours): almost completely consumed | concentration in supernatant fluid ([2]; 0.0000 hr): 0.43 mg/mL | concentration in supernatant fluid ([2]; 0.0000 hr, listed as L-aspartic acid): 0.43 mg/mL | concentration in supernatant fluid ([2]; 2.7500 hr): 0.11 mg/mL | percent remaining ([2]; 2.7500 hr): 25.581% | concentration in supernatant fluid ([2]; 13.500 hr): 0.09 mg/mL | percent remaining ([2]; 13.500 hr): 20.930% | concentration in supernatant fluid ([2]; 15.000 hr): 0.08 mg/mL | percent remaining ([2]; 15.000 hr): 18.605% | concentration in supernatant fluid ([2]; 19.500 hr): 0.09 mg/mL | percent remaining ([2]; 19.500 hr): 20.930% | concentration in supernatant fluid ([2]; 23.500 hr): 0.07 mg/mL | percent remaining ([2]; 23.500 hr): 16.279% | concentration in supernatant fluid ([2]; 23.500 hr, listed as L-aspartic acid): 0.07 mg/mL | concentration in supernatant fluid ([2]; 39.000 hr): 0.1 mg/mL | percent remaining ([2]; 39.000 hr): 23.256% | concentration in supernatant fluid ([2]; 47.000 hr): 0.16 mg/mL | percent remaining ([2]; 47.000 hr): 37.209% | concentration in supernatant fluid ([2]; 51.750 hr): 0.23 mg/mL | percent remaining ([2]; 51.750 hr): 53.488% | concentration in supernatant fluid ([2]; 68.500 hr): 0.55 mg/mL | percent remaining ([2]; 68.500 hr): 127.91% | concentration in supernatant fluid ([2]; 68.500 hr, listed as L-aspartic acid): 0.55 mg/mL | substrate specificity of the enzyme [3]: the only substrate for the enzyme | concentration in supernatant fluid ([3]; 0 hr): 26.810 mg/mL | concentration in supernatant fluid ([3]; 3.5 hr): 14.050 mg/mL | percent remaining ([3]; 3.5 hr): 52.406% | concentration in supernatant fluid ([3]; 8.5 hr): 12.660 mg/mL | percent remaining ([3]; 8.5 hr): 47.221% | concentration in supernatant fluid ([3]; 24 hr): 9.4700 mg/mL | percent remaining ([3]; 24 hr): 35.323% | concentration in supernatant fluid ([3]; 55 hr): 0.3300 mg/mL | percent remaining ([3]; 55 hr, 3300 min): 1.2309% | percent remaining ([3]; 55 hr, listed as L-aspartic acid, 3300 min): 1.23% | concentration in supernatant fluid ([4]; 0.000 hr): 100.0 mg/mL | concentration in supernatant fluid ([4]; 1.000 hr): 98.93 mg/mL | percent remaining ([4]; 1.000 hr): 108.9% | concentration in supernatant fluid ([4]; 3.000 hr): 105.7 mg/mL | percent remaining ([4]; 3.000 hr): 83.78% | concentration in supernatant fluid ([4]; 5.0000 hr): 106.0 mg/mL | percent remaining ([4]; 5.0000 hr): 73.63% | concentration in supernatant fluid ([4]; 7.000 hr): 106.6 mg/mL | percent remaining ([4]; 7.000 hr): 73.63% | concentration in supernatant fluid ([4]; 9.000 hr): 107.3 mg/mL | percent remaining ([4]; 9.000 hr): 70.13% | concentration in supernatant fluid ([4]; 13.50 hr): 108.4 mg/mL | percent remaining ([4]; 13.50 hr): 70.54% | concentration in supernatant fluid ([4]; 23.00 hr): 103.3 mg/mL | percent remaining ([4]; 23.00 hr): 65.98% | concentration in supernatant fluid ([4]; 25.00 hr): 109.0 mg/mL | percent remaining ([4]; 25.00 hr): 65.73% | concentration in supernatant fluid ([4]; 27.00 hr): 103.6 mg/mL | percent remaining ([4]; 27.00 hr): 55.48% | concentration in supernatant fluid ([4]; 32.00 hr): 104.4 mg/mL | percent remaining ([4]; 32.00 hr): 53.33% | concentration in supernatant fluid ([4]; 37.50 hr): 106.5 mg/mL | percent remaining ([4]; 37.50 hr): 58.82% | percent remaining ([4]; 47.00 hr): 52.77% | concentration in supernatant fluid ([4]; 52.00 hr): 107.0 mg/mL | percent remaining ([4]; 52.00 hr): 56.28% | concentration in supernatant fluid ([4]; 57.00 hr): 119.4 mg/mL | percent remaining ([4]; 57.00 hr): 66.89% | concentration in supernatant fluid ([4]; 71.00 hr): 104.2 mg/mL | percent remaining ([4]; 71.00 hr): 52.65% | concentration in supernatant fluid ([4]; 77.00 hr): 105.4 mg/mL | percent remaining ([4]; 77.00 hr): 53.35% | concentration in supernatant fluid ([4]; 81.00 hr): 104.6 mg/mL | percent remaining ([4]; 81.00 hr): 52.69% | concentration in supernatant fluid ([4]; 99.75 hr): 108.1 mg/mL | percent remaining ([4]; 99.75 hr): 53.93%
